≈ marks a conversion by molar mass, not a printed value. Where “and” joins values, the source holds several entries; their conditions need not be identical. Identical values can stand only once. Each block holds one molecule with its values, some of them ahead of it.
Tests used:
Assay in all cases: ≥ marks a high value that may be exact or a test limit, other limits are often not marked, values filed in µg/mL are converted to µM
[1] = test system: Pseudomonas aeruginosa ATCC 10662
[2] = test system: Staphylococcus aureus ATCC 25923
[3] = test system: Escherichia coli ATCC 25922
Staphylococcus aureus = test system: Staphylococcus aureus
Acinetobacter baumannii = test system: Acinetobacter baumannii
[4] = test system: Staphylococcus epidermidis ATCC 1435
[5] = test system: Aeromonas salmonicida MT423
[6] = test system: Vibrio anguillarum MT1742
[7] = test system: Lactococcus garvieae MT2055
[8] = test system: Aeromonas salmonicida MT004
Yersinia ruckeri MT252 = test system: Yersinia ruckeri MT252
[9] = test system: Escherichia coli NCIMB 12260
[10] = test system: Vibrio anguillarum MT1741
[11] = test system: Lactococcus garvieae MT2291
Escherichia coli MG1655 = test system: Escherichia coli MG1655
Bacillus subtilis 168 HT = test system: Bacillus subtilis 168 HT
[12] = test system: Pseudomonas aeruginosa ATCC 15692
[13] = test system: Salmonella typhimurium KCTC 1926
[14] = test system: Listeria monocytogenes KCTC 19111
[15] = test system: Staphylococcus epidermidis KCTC 1917
[16] = test system: Escherichia coli CMCC 44102
[17] = test system: Salmonella enterica subsp. enterica serovar Typhimurium ATCC 14028
Escherichia coli UB1005 = test system: Escherichia coli UB1005
[18] = test system: Salmonella enterica subsp. enterica serovar Typhimurium C77-31
Escherichia coli 078 = test system: Escherichia coli 078
[19] = test system: Salmonella enterica subsp. enterica serovar Pullorum C79-13
Escherichia coli K88 = test system: Escherichia coli K88
Escherichia coli ER2566 = test system: Escherichia coli ER2566
[20] = test system: Pseudomonas aeruginosa ATCC 10419
[21] = test system: Staphylococcus epidermidis ATCC 12228
[22] = test system: Pseudomonas aeruginosa ATCC 21630
[23] = test system: Bacillus subtilis ATCC 11060
[24] = test system: Escherichia coli CVCC 1515
[25] = test system: Pseudomonas aeruginosa ATCC 27853
[26] = test system: Enterococcus faecalis ATCC 29212
[27] = test system: Pseudomonas aeruginosa ATCC 21625
[28] = test system: Staphylococcus aureus ATCC 29213
[29] = test system: Streptococcus sanguinis ATCC 10556
[30] = test system: Streptococcus mutans ATCC UA159
[31] = test system: Candida albicans ATCC 5314

- MIC [12]: 2 µM (≈ 4.88 µg/mL)
- MIC [13]: 2 µM (≈ 4.88 µg/mL)
- MIC [14]: 1 µM (≈ 2.44 µg/mL)
- MIC [2]: 2 µM (≈ 4.88 µg/mL)
- MIC [3]: 1 µM (≈ 2.44 µg/mL)
- MIC [15]: 1 µM (≈ 2.44 µg/mL)
SMILES: NCCCC[C@H](NC(=O)[C@H](Cc1ccc(O)cc1)NC(=O)[C@H](Cc1c[nH]c2ccccc12)NC(=O)[C@H](CCCCN)NC(=O)[C@H](CCCCN)NC(=O)[C@H](Cc1ccc(O)cc1)NC(=O)[C@H](Cc1c[nH]c2ccccc12)NC(=O)[C@H](CCCCN)NC(=O)[C@H](CCCCN)NC(=O)[C@H](Cc1ccc(O)cc1)NC(=O)[C@H](Cc1c[nH]c2ccccc12)NC(=O)[C@H](CCCCN)NC(=O)[C@H](CCCCN)NC(=O)[C@H](Cc1ccc(O)cc1)NC(=O)[C@H](Cc1c[nH]c2ccccc12)NC(=O)[C@@H](N)CCCCN)C(N)=O [KWYKKWYKKWYKKWYK]

- MIC [16]: 0.515 µM (≈ 1.9 µg/mL)
- MIC [17]: 2.01 µM (≈ 7.39 µg/mL)
- MIC (Escherichia coli UB1005): 2.01 µM (≈ 7.39 µg/mL)
- MIC [18]: 4.01 µM (≈ 14.8 µg/mL)
- MIC (Escherichia coli 078): 4.01 µM (≈ 14.8 µg/mL)
- MIC [19]: 4.01 µM (≈ 14.8 µg/mL)
- MIC (Escherichia coli K88): 0.515 µM (≈ 1.9 µg/mL)
- MIC (Escherichia coli ER2566): 1 µM (≈ 3.69 µg/mL)
- MIC [20]: 4.01 µM (≈ 14.8 µg/mL)
- MIC [21]: 2.01 µM (≈ 7.39 µg/mL)
- MIC [22]: 2.01 µM (≈ 7.39 µg/mL)
- MIC [23]: 2.01 µM (≈ 7.39 µg/mL)
- MIC [24]: 4.01 µM (≈ 14.8 µg/mL)
- MIC [25]: 4.01 µM (≈ 14.8 µg/mL)
- MIC [2]: 8.02 µM (≈ 29.6 µg/mL)
- MIC [3]: 1 µM and 2.01 µM
- MIC [26]: 1 µM (≈ 3.69 µg/mL)
- MIC [27]: 4.01 µM (≈ 14.8 µg/mL)
- MIC [28]: 2.01 µM (≈ 7.39 µg/mL)
SMILES: CC[C@H](C)[C@H](NC(=O)[C@H](CCCCN)NC(=O)[C@H](CCCCN)NC(=O)[C@H](CC(C)C)NC(=O)[C@H](CCCN=C(N)N)NC(=O)[C@H](Cc1c[nH]c2ccccc12)NC(=O)[C@H](CCCN=C(N)N)NC(=O)[C@@H](NC(=O)[C@H](CCCCN)NC(=O)[C@H](Cc1c[nH]c2ccccc12)NC(=O)[C@H](CCCN=C(N)N)NC(=O)[C@H](CC(C)C)NC(=O)[C@H](CCCN=C(N)N)NC(=O)[C@H](CCCN=C(N)N)NC(=O)[C@H](Cc1ccccc1)NC(=O)[C@@H](N)CCCN=C(N)N)[C@@H](C)O)C(=O)N[C@H]1CSSC[C@@H](C(=O)N[C@H](C(N)=O)C(C)C)NC(=O)[C@H](C(C)C)NC(=O)[C@@H]2CSSC[C@H](NC(=O)[C@H](Cc3ccc(O)cc3)NC1=O)C(=O)N[C@@H](CCCN=C(N)N)C(=O)N[C@@H](CCCN=C(N)N)C(=O)N[C@@H](CCCN=C(N)N)C(=O)N[C@@H](Cc1ccccc1)C(=O)N2 [RFRRLRWKTRWRLKKICYCRRRFCVCV]

- MIC [29]: 25.1 µM (≈ 64 µg/mL)
- MIC [2]: 25.1 µM (≈ 64 µg/mL)
- MIC (Staphylococcus aureus): 12.6 µM (≈ 32 µg/mL)
- MIC [30]: 6.28 µM (≈ 16 µg/mL)
- MIC [31]: 12.6 µM (≈ 32 µg/mL)
SMILES: CC[C@H](C)[C@H](NC(=O)[C@H](CCCCN)NC(=O)[C@H](CCCN=C(N)N)NC(=O)[C@@H](NC(=O)[C@@H](N)Cc1ccc(O)cc1)[C@@H](C)CC)C(=O)N[C@@H](CCCN=C(N)N)C(=O)N[C@@H](CCCN=C(N)N)C(=O)N[C@@H](Cc1ccccc1)C(=O)N[C@@H](Cc1ccccc1)C(=O)N[C@@H](CCCCN)C(=O)N[C@@H](CCCCN)C(=O)N[C@@H](CCCN=C(N)N)C(=O)N[C@@H](Cc1ccccc1)C(=O)N[C@@H](CCCCN)C(=O)N[C@@H](Cc1ccccc1)C(=O)N[C@@H](CCCN=C(N)N)C(=O)N[C@@H](CCCCN)C(=O)N[C@@H](CCCCN)C(N)=O [YIRKIRRFFKKRFKFRKK]

Continued, molecule first:

SMILES: CC[C@H](C)[C@H](NC(=O)[C@H](Cc1cnc[nH]1)NC(=O)[C@H](Cc1cnc[nH]1)NC(=O)[C@H](Cc1ccccc1)NC(=O)[C@@H](N)Cc1ccccc1)C(=O)N[C@@H](Cc1ccccc1)C(=O)N[C@@H](CCCN=C(N)N)C(=O)NCC(=O)N[C@@H](CCCCN)C(=O)N[C@H](C(=O)N[C@@H](Cc1cnc[nH]1)C(=O)N[C@H](C(=O)NCC(=O)N[C@@H](CCCCN)C(=O)N[C@H](C(=O)N[C@H](C(=O)N[C@@H](Cc1cnc[nH]1)C(=O)N[C@@H](CCCN=C(N)N)C(=O)N[C@@H](CC(C)C)C(=O)N[C@H](C(=O)N[C@H](C(=O)NCC(N)=O)[C@@H](C)O)C(C)C)[C@@H](C)CC)[C@@H](C)O)C(C)C)C(C)C [FFHHIFRGKVHVGKTIHRLVTG]
- MIC [1]: 9.66 µM (≈ 25 µg/mL)
- MIC [2]: 1.2 µM (≈ 3.1 µg/mL)
- MIC [3]: 1.2 µM (≈ 3.1 µg/mL)
- MIC (Staphylococcus aureus): 2.4 µM (≈ 6.2 µg/mL)
- MIC (Acinetobacter baumannii): 1.2 µM (≈ 3.1 µg/mL)
- MIC [4]: 1.2 µM (≈ 3.1 µg/mL)

SMILES: CC[C@H](C)[C@H](NC(=O)CNC(=O)[C@H](CCCCN)NC(=O)[C@@H](NC(=O)[C@@H](NC(=O)[C@H](Cc1cnc[nH]1)NC(=O)[C@H](Cc1cnc[nH]1)NC(=O)[C@@H](NC(=O)[C@@H](N)Cc1ccccc1)[C@@H](C)CC)[C@@H](C)CC)[C@@H](C)CC)C(=O)N[C@@H](Cc1ccccc1)C(=O)N[C@@H](Cc1cnc[nH]1)C(=O)N[C@H](C(=O)NCC(=O)N[C@@H](CCCCN)C(=O)N[C@@H](CCSC)C(=O)N[C@H](C(=O)N[C@@H](Cc1cnc[nH]1)C(=O)N[C@@H](CO)C(=O)N[C@@H](C)C(=O)N[C@H](C(=O)N[C@@H](CC(N)=O)C(=O)N[C@@H](CCCN=C(N)N)C(=O)N[C@@H](CCCN=C(N)N)C(=O)N[C@@H](CCCN=C(N)N)C(=O)N[C@@H](Cc1cnc[nH]1)C(=O)O)[C@@H](C)CC)[C@@H](C)CC)[C@@H](C)CC [FIHHIIKGIFHIGKMIHSAINRRRH]
- MIC [5]: 0.528 µM (≈ 1.6 µg/mL)
- MIC [6]: 0.528 µM (≈ 1.6 µg/mL)
- MIC [7]: 0.528 µM (≈ 1.6 µg/mL)
- MIC [8]: 0.528 µM (≈ 1.6 µg/mL)
- MIC (Yersinia ruckeri MT252): 0.528 µM (≈ 1.6 µg/mL)
- MIC [9]: 0.528 µM (≈ 1.6 µg/mL)
- MIC [10]: 0.528 µM (≈ 1.6 µg/mL)
- MIC [11]: 0.528 µM (≈ 1.6 µg/mL)

SMILES: CC[C@H](C)[C@H](N)C(=O)N[C@@H](CCCCN)C(=O)N[C@H](C(=O)N[C@H](C(=O)N[C@@H](C)C(=O)N1CCC[C@H]1C(=O)N[C@@H](CCCCN)C(=O)N[C@@H](CCCCN)C(=O)N[C@H](C(=O)N[C@@H](CCCCN)C(=O)N[C@@H](CC(C)C)C(=O)O)[C@@H](C)CC)C(C)C)[C@@H](C)CC [IKIVAPKKIKL]
- MIC (Escherichia coli MG1655): ≥ 102 µM
- MIC (Bacillus subtilis 168 HT): ≥ 102 µM
